Source: patent US4379917A, “6"-(Substituted)-apramycin antibiotic derivatives and intermediates and starting materials therefor” (Eli Lilly and Company, priority 1981, dated 1983)
In brackets after ≈: the same amount, converted by molar mass. Where two headings read alike, the source gives them in different places.

Legend:
[1] = system: Pseudomonas aeruginosa X239; assay: Subcutaneous therapy of Pseudomonas aeruginosa X239 infections in mice; type: in vivo; details: X239, sc, 2 subcutaneous doses at 1 and 5 hours post infection, dose to protect 50 percent of test animals, read-out: Effective Dose (ED50)
Experimental: Table III illustrates the effective dose (ED50, effective dose to protect 50 percent of the test animals) for representative compounds of this invention against an experimental bacterial infection in mice. | *mg/kg × 2 subcutaneous doses at 1 and 5 hours post infections The ED50 values were determined as described by W. E. Wick et al., Journal of Bacteriolocy, 81 [No. 2], 233-235 (1961).

[2] = system: Pseudomonas aeruginosa X528; assay: MIC by standard agar dilution test; type: cell-based; details: X528, read-out: Minimum Inhibitory Concentration
[3] = system: Pseudomonas aeruginosa PI23; assay: MIC by standard agar dilution test; type: cell-based; details: PI23, read-out: Minimum Inhibitory Concentration
[4] = system: Salmonella typhimurium; assay: MIC by standard agar dilution test; type: cell-based; details: Salmonella enterica, Table II, agar dilution, read-out: Minimum Inhibitory Concentration
[5] = system: Pseudomonas aeruginosa X48; assay: MIC by standard agar dilution test; type: cell-based; details: X48, read-out: Minimum Inhibitory Concentration
[6] = system: Pseudomonas aeruginosa X239; assay: MIC by standard agar dilution test; type: cell-based; details: X239, read-out: Minimum Inhibitory Concentration, Table 1
[7] = system: Pseudomonas aeruginosa Ps15; assay: MIC by standard agar dilution test; type: cell-based; details: PS15, read-out: Minimum Inhibitory Concentration
[8] = system: Pseudomonas aeruginosa SF-2; assay: MIC by standard agar dilution test; type: cell-based; details: SF2, read-out: Minimum Inhibitory Concentration
[9] = system: Bordetella bronchiseptica 16; assay: MIC by standard agar dilution test; type: cell-based; details: Bordetella bronchiseptica, 16, read-out: Minimum Inhibitory Concentration
[10] = system: Erwinia amylovora; assay: MIC by standard agar dilution test; type: cell-based; details: Table II, read-out: Minimum Inhibitory Concentration
Excerpt: (§1) The antibacterial activity of the antibiotic compounds of this invention is illustrated by the following in vitro and in vivo test data obtained with representative compounds. In Tables I and II the minimum inhibitory concentration (MIC) for representative compounds against a wide range of gram-positive and gram-negative bacteria is presented. The MIC values were obtained by the standard agar dilution test.

[11] = system: Staphylococcus aureus 3074; assay: MIC by standard agar dilution test; type: cell-based; details: Table II, read-out: Minimum Inhibitory Concentration
Excerpt: as §1

[12] = system: Klebsiella pneumoniae KL2; assay: MIC by standard agar dilution test; type: cell-based; details: KL2, Table 1, agar dilution, read-out: Minimum Inhibitory Concentration
[13] = system: Escherichia coli EC14; assay: MIC by standard agar dilution test; type: cell-based; details: EC14, read-out: Minimum Inhibitory Concentration
[14] = system: Salmonella typhosa SA12; assay: MIC by standard agar dilution test; type: cell-based; details: Salmonella enterica, read-out: Minimum Inhibitory Concentration
[15] = system: Staphylococcus aureus 3055; assay: MIC by standard agar dilution test; type: cell-based; details: Staphylococcus aureus, 3055, read-out: Minimum Inhibitory Concentration
[16] = system: Citrobacter freundii CF17; assay: MIC by standard agar dilution test; type: cell-based; details: CF17, Table II, agar dilution, read-out: Minimum Inhibitory Concentration
[17] = system: Klebsiella pneumoniae KL14; assay: MIC by standard agar dilution test; type: cell-based; details: KL14, Table II, agar dilution, read-out: Minimum Inhibitory Concentration
[18] = system: Streptococcus faecalis X66; assay: MIC by standard agar dilution test; type: cell-based; details: Enterococcus faecalis, X66, read-out: Minimum Inhibitory Concentration
[19] = system: Pseudomonas aeruginosa 4276; assay: MIC by standard agar dilution test; type: cell-based; details: Pseudomonas aeruginosa, 4276, read-out: Minimum Inhibitory Concentration
[20] = system: Pseudomonas aeruginosa Ps9; assay: MIC by standard agar dilution test; type: cell-based; details: PS9, read-out: Minimum Inhibitory Concentration
[21] = system: Serratia marcescens SE3; assay: MIC by standard agar dilution test; type: cell-based
[22] = system: Pseudomonas solanacearum X185; assay: microbe, parasite or virus in culture; type: cell-based; details: Ralstonia solanacearum, X185, read-out: Minimum Inhibitory Concentration
[23] = system: Enterobacter aerogenes EB17; assay: MIC by standard agar dilution test; type: cell-based; details: Klebsiella aerogenes, EB17; Table II; agar dilution; read-out: Minimum Inhibitory Concentration
[24] = system: Proteus morganii PR2; assay: MIC by standard agar dilution test; type: cell-based; details: Morganella morganii, PR2; Table 1; agar dilution; read-out: Minimum Inhibitory Concentration
[25] = system: Enterobacter cloacae EB24; assay: MIC by standard agar dilution test; type: cell-based; details: EB24, Table 1, agar dilution, read-out: Minimum Inhibitory Concentration
[26] = system: Proteus inconstans PV25; assay: MIC by standard agar dilution test; type: cell-based; details: Providencia alcalifaciens, PV25; Table 1; agar dilution; read-out: Minimum Inhibitory Concentration
[27] = system: Proteus morganii PR15; assay: MIC by standard agar dilution test; type: cell-based; details: Morganella morganii, PR15, read-out: Minimum Inhibitory Concentration
[28] = system: Pseudomonas aeruginosa Ps25; assay: MIC by standard agar dilution test; type: cell-based; details: PS25, read-out: Minimum Inhibitory Concentration
[29] = system: Enterobacter aerogenes EB6; assay: MIC by standard agar dilution test; type: cell-based; details: Klebsiella aerogenes, EB6, read-out: Minimum Inhibitory Concentration
[30] = system: Enterobacter cloacae EN453; assay: MIC by standard agar dilution test; type: cell-based; details: EN453, Table 1, agar dilution, read-out: Minimum Inhibitory Concentration
[31] = system: Proteus morganii PR1; assay: MIC by standard agar dilution test; type: cell-based; details: Morganella morganii, PR1, read-out: Minimum Inhibitory Concentration
[32] = system: Serratia marcescens SE2; assay: MIC by standard agar dilution test; type: cell-based; details: SE2, Table 1, agar dilution, read-out: Minimum Inhibitory Concentration
[33] = system: Serratia marcescens X99; assay: MIC by standard agar dilution test; type: cell-based; details: X99, Table 1, agar dilution, read-out: Minimum Inhibitory Concentration

**Q.** `CN[C@@H]1[C@@H](O[C@H]2O[C@H](CN)[C@@H](N)[C@H](O)[C@H]2O)O[C@H]2C[C@@H](N)[C@@H](O[C@H]3[C@H](O)[C@@H](O)[C@H](N)C[C@@H]3N)O[C@@H]2[C@@H]1O` [Test Compound 5, 6"-Amino-6"-Deoxyapramycin] was tested. Which ED50 [1] did it give?
**A.** Its ED50 is 15 mg/kg.

**Q.** What about the MIC [2] of the same compound?
**A.** The MIC was 64 µg/mL (≈ 119 µM).

**Q.** And the MIC [3]?
**A.** The MIC was greater than 128 µg/mL.

**Q.** What about the MIC [4] of the same compound?
**A.** Its MIC is 8 µg/mL (≈ 14.9 µM).

**Q.** What about the MIC [5] of the same compound?
**A.** Its MIC is 32 µg/mL (≈ 59.4 µM).

**Q.** What about the MIC [6] of the same compound?
**A.** Its MIC is 32 µg/mL (≈ 59.4 µM).

**Q.** What about the MIC [7] of the same compound?
**A.** The MIC was 32 µg/mL (≈ 59.4 µM).

**Q.** What about the MIC [8] of the same compound?
**A.** The MIC was 32 µg/mL (≈ 59.4 µM).

**Q.** What about the MIC [9] of the same compound?
**A.** The MIC was 32 µg/mL (≈ 59.4 µM).

**Q.** What about the MIC [10] of the same compound?
**A.** Its MIC is 4 µg/mL (≈ 7.43 µM).

**Q.** And the MIC [11]?
**A.** The MIC was 4 µg/mL (≈ 7.43 µM).

**Q.** And the MIC [12]?
**A.** The MIC was 8 µg/mL (≈ 14.9 µM).

**Q.** And the MIC [13]?
**A.** Its MIC is 16 µg/mL (≈ 29.7 µM).

**Q.** And the MIC [14]?
**A.** Its MIC is 16 µg/mL (≈ 29.7 µM).

**Q.** And the MIC [15]?
**A.** Its MIC is 1 µg/mL (≈ 1.86 µM).

**Q.** And the MIC [16]?
**A.** The MIC was 8 µg/mL (≈ 14.9 µM).

**Q.** And the MIC [17]?
**A.** The MIC was 8 µg/mL (≈ 14.9 µM).

**Q.** And the MIC [18]?
**A.** The MIC was 32 µg/mL (≈ 59.4 µM).

**Q.** And the MIC [19]?
**A.** The MIC was 64 µg/mL (≈ 119 µM).

**Q.** And the MIC [20]?
**A.** Its MIC is 128 µg/mL (≈ 238 µM).

**Q.** And the MIC ([21]; SE3, Table 1, read-out: Minimum Inhibitory Concentration)?
**A.** Its MIC is 8 µg/mL (≈ 14.9 µM).

**Q.** What about the MIC ([21]; SE3, read-out: Minimum Inhibitory Concentration, Table II) of the same compound?
**A.** Its MIC is 16 µg/mL (≈ 29.7 µM).

**Q.** And the MIC [22]?
**A.** The MIC was 4 µg/mL (≈ 7.43 µM).

**Q.** What about the MIC [23] of the same compound?
**A.** Its MIC is 8 µg/mL (≈ 14.9 µM).

**Q.** And the MIC [24]?
**A.** Its MIC is 8 µg/mL (≈ 14.9 µM).

**Q.** And the MIC [25]?
**A.** Its MIC is 8 µg/mL (≈ 14.9 µM).

**Q.** And the MIC [26]?
**A.** The MIC was 8 µg/mL (≈ 14.9 µM).

**Q.** What about the MIC [27] of the same compound?
**A.** Its MIC is 32 µg/mL (≈ 59.4 µM).

**Q.** And the MIC [28]?
**A.** The MIC was 32 µg/mL (≈ 59.4 µM).

**Q.** And the MIC [29]?
**A.** Its MIC is 16 µg/mL (≈ 29.7 µM).

**Q.** And the MIC [30]?
**A.** The MIC was 8 µg/mL (≈ 14.9 µM).

**Q.** What about the MIC [31] of the same compound?
**A.** The MIC was 16 µg/mL (≈ 29.7 µM).

**Q.** And the MIC [32]?
**A.** The MIC was 8 µg/mL (≈ 14.9 µM).

**Q.** And the MIC [33]?
**A.** The MIC was 8 µg/mL (≈ 14.9 µM).
